The text below walks through data of patent US20240217968A1, “PHARMACEUTICAL COMPOUND” (DUKE STREET BIO LIMITED, priority 2021, published 2024).

The experiment concerns the target T1, recombinant human Flag-tagged PARP7 (amino acids 456-657) (Homo sapiens, UniProt Q7Z3E1).
T1 construct: recombinant human Flag-tagged PARP7 (amino acids 456-657)
T1 sequence (Q7Z3E1 456-657): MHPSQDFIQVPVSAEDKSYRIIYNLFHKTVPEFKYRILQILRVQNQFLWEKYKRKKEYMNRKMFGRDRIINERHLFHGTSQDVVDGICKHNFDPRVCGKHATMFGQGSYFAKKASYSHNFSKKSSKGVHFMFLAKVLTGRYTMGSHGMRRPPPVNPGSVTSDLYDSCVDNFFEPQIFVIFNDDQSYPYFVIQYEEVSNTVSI
The experiment is described as follows: PARP7 biochemical DELFIA assay (auto-MARylation). To be noted: DELFIA readout, IC50 class. The method, boiled down: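 Readout is DELFIA time-resolved Eu fluorescence (Ex337 nm, Em620 nm) of biotin-ADP-ribose on immobilised Flag-tagged PARP7 456-657. Enzyme (12.5-37.5 nM as added) sat 30 min with compound before biotin-NAD+ (15 μM solution, pH 7.5 HEPES buffer) started 2-3 h room-temperature self-modification, stopped with excess NAD+.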

As a reminder, the IC50 is the concentration needed to halve the response being measured.

As to `CCC(COCCC(=O)N1CCN(c2ncc(C(F)(F)F)cn2)CC1)n1nc(C(F)(F)F)c2c(=O)[nH]ncc21` (stereo not drawn) [Compound 297], the IC50 was not above 100 nM.

In the case of `CCC(COCCC(=O)N1CCN(c2ncc(C(F)(F)F)cn2)CC1)n1nc(C(F)(F)F)c2c(=O)[nH]ncc21` (stereo not drawn) [Compound 298], the IC50 is not above 100 nM. Turning to `O=C(CCOCCn1nc(C(F)(F)F)c2c(=O)[nH]ncc21)N1CCN(c2nc(C(F)(F)F)cs2)CC1` [Compound 299], the IC50 was not above 100 nM.

On to `O=C(CCOCCn1nc(C(F)(F)F)c2c(=O)[nH]ncc21)N1CCN(c2ccc(C3CC3)cn2)CC1` [Compound 300], for which the IC50 was not above 100 nM. The value for `O=C1CCc2cnc(N3CCN(C(=O)CCOCCn4nc(C(F)(F)F)c5c(=O)[nH]ncc54)CC3)nc2N1` [Compound 303] was not above 100 nM. Regarding `CNC(=O)c1ccc(N2CCN(C(=O)CCOCC(C)n3nc(C(F)(F)F)c4c(=O)[nH]ncc43)CC2)nc1` (stereo not drawn) [Compound 304], the IC50 was in the range of 100 to 1000 nM. Under `COc1ccc(N2CCN(C(=O)CCOCC(C)n3nc(C(F)(F)F)c4c(=O)[nH]ncc43)CC2)nc1` (stereo not drawn) [Compound 307] stands not above 100 nM; under `CC1CN(C(=O)CCOCCN2C(=O)CCc3c2cn[nH]c3=O)CCN1c1ncc(C(F)(F)F)cn1` (stereo not drawn) [Compound 308], not above 100 nM; under `CC1CN(C(=O)CCOCCN2C(=O)CCc3c2cn[nH]c3=O)CCN1c1ncc(C(F)(F)F)cn1` (stereo not drawn) [Compound 309], not above 100 nM. Turning to `CC(COCCC(=O)N1CCN(c2cnc(C#N)cn2)CC1)n1nc(C(F)(F)F)c2c(=O)[nH]ncc21` (stereo not drawn) [Compound 312], the IC50 is not above 100 nM.

As to `CC(COCCC(=O)N1CCN(c2cnc(C#N)cn2)CC1)n1nc(C(F)(F)F)c2c(=O)[nH]ncc21` (stereo not drawn) [Compound 313], the IC50 is not above 100 nM.

`O=C(CCOCCn1nc(C(F)(F)F)c2c(=O)[nH]ncc21)N1CCN(c2nc(C(F)(F)F)co2)CC1` [Compound 314]: the IC50 was not above 100 nM. With `O=C(CCOCCn1nc(C(F)(F)F)c2c(=O)[nH]ncc21)N1CCN(c2ncc(C3CC3)cn2)CC1` [Compound 315], the IC50 was not above 100 nM.

For `O=C1NCCn2c(CCOCCC(=O)N3CCN(c4ncc(C(F)(F)F)cn4)CC3)cc(C(F)(F)F)c21` [Compound 316, 6-(2-(3-oxo-3-(4-(5-(trifluoromethyl)pyrimidin-2-yl)piperazin-1-yl)propoxy)ethyl)-8-(trifluoromethyl)-3,4-dihydropyrrolo[1,2-a]pyrazin-1(2H)-one], the IC50 is not above 100 nM. Under `CN(C(=O)COCCn1nc(C(F)(F)F)c2c(=O)[nH]ncc21)C1CCN(c2ncc(C(F)(F)F)cn2)CC1` [Compound 317, N-methyl-2-(2-(4-oxo-3-(trifluoromethyl)-4,5-dihydro-1H-pyrazolo[3,4-d]pyridazin-1-yl)ethoxy)-N-(1-(5-(trifluoromethyl)pyrimidin-2-yl)piperidin-4-yl)acetamide] stands not above 100 nM. The value for `O=C(CCOCCn1nc(C(F)(F)F)c2c(=O)[nH]ncc21)N1CCN(c2noc(C(F)(F)F)n2)CC1` [Compound 320] was not above 100 nM; that for `CNC(=O)c1cnc(N2CCN(C(=O)CCOCC(C)n3nc(C(F)(F)F)c4c(=O)[nH]ncc43)CC2)nc1` (stereo not drawn) [Compound 325] was not above 100 nM; that for `CC(COCCC(=O)N1CCN(c2ncc(C#N)o2)CC1)n1nc(C(F)(F)F)c2c(=O)[nH]ncc21` (stereo not drawn) [Compound 329] was not above 100 nM. For `CC(COCCC(=O)N1CCN(c2ncc(C#N)o2)CC1)n1nc(C(F)(F)F)c2c(=O)[nH]ncc21` (stereo not drawn) [Compound 330], the IC50 was not above 100 nM. With `O=C(CCOCCn1nc(C2CC2)c2c(=O)[nH]ncc21)N1CCN(c2ncc(C(F)(F)F)cn2)CC1` [Compound 333], the IC50 was not above 100 nM. The value for `Cc1ccc(N2CCN(C(=O)CCOCC(C)n3nc(C(F)(F)F)c4c(=O)[nH]ncc43)CC2)nc1` (stereo not drawn) [Compound 334] was not above 100 nM. `Cc1nn(C(C)COCCC(=O)N2CCN(c3ncc(Cl)cn3)CC2)c2cn[nH]c(=O)c12` (stereo not drawn) [Compound 336]: the IC50 was not above 100 nM. `O=C(CCOCCn1ncc2c(=O)[nH]ncc21)N1CCN(c2ccc(C(F)(F)F)cc2)C(=O)C1` [Compound 337]: the concentration for half-maximal inhibition (IC50) fell in the range of 1000 to 10000 nM. Under `N#Cc1cn(CCOCCC(=O)N2CCN(c3ncc(C(F)(F)F)cn3)CC2)c2cn[nH]c(=O)c12` [Compound 340] stands not above 100 nM; under `O=C(CCOCCn1cc(C(F)(F)F)c2c(=O)[nH]ncc21)N1CCN(c2nc(C(F)(F)F)cs2)CC1` [Compound 341], not above 100 nM. The value for `CC(COCCC(=O)N1CCN(c2ccc(C(F)F)cn2)CC1)n1nc(C(F)(F)F)c2c(=O)[nH]ncc21` (stereo not drawn) [Compound 342] was not above 100 nM. Under `CC(COCCC(=O)N1CCN(c2ccc(C(F)F)cn2)CC1)n1nc(C(F)(F)F)c2c(=O)[nH]ncc21` (stereo not drawn) [Compound 343] stands not above 100 nM. As to `CC(COCCC(=O)N1CCN(c2noc(C(F)(F)F)n2)CC1)n1nc(C(F)(F)F)c2c(=O)[nH]ncc21` (stereo not drawn) [Compound 345], the half-maximal inhibitory concentration (IC50) lay within 100 to 1000 nM.

For `CC(C)(COCCC(=O)N1CCN(c2ncc(C(F)(F)F)cn2)CC1)n1nc(C(F)(F)F)c2c(=O)[nH]ncc21` [Compound 346], the 50% inhibitory concentration (IC50) is not above 100 nM.

Regarding `CC(COCCC(=O)N1CCN(c2ccc(F)cn2)CC1)n1nc(C(F)(F)F)c2c(=O)[nH]ncc21` (stereo not drawn) [Compound 347], the IC50 was not above 100 nM. The value for `CC(COCCC(=O)N1CCN(c2ccc(F)cn2)CC1)n1nc(C(F)(F)F)c2c(=O)[nH]ncc21` (stereo not drawn) [Compound 348] was not above 100 nM; that for `CC(COCCC(=O)N1CCN(c2ncc(F)cc2F)CC1)n1nc(C(F)(F)F)c2c(=O)[nH]ncc21` (stereo not drawn) [Compound 349] was not above 100 nM. On to `CC(COCCC(=O)N1CCN(c2cc(C(F)(F)F)ccn2)CC1)n1nc(C(F)(F)F)c2c(=O)[nH]ncc21` (stereo not drawn) [Compound 351], for which the IC50 was not above 100 nM.

Take `CC(COCCC(=O)N1CCN(c2cc(C(F)(F)F)ccn2)CC1)n1nc(C(F)(F)F)c2c(=O)[nH]ncc21` (stereo not drawn) [Compound 352]: the IC50 was not above 100 nM.

As for `CC(COCCC(=O)N1CCN(c2ncccc2C(F)(F)F)CC1)n1nc(C(F)(F)F)c2c(=O)[nH]ncc21` (stereo not drawn) [Compound 353], the IC50 was not above 100 nM. Consider `CC(COCCC(=O)N1CCN(c2ncccc2C(F)(F)F)CC1)n1nc(C(F)(F)F)c2c(=O)[nH]ncc21` (stereo not drawn) [Compound 354], for which the IC50 was 100 to 1000 nM. Turning to `CC(COCCC(=O)N1CCN(c2ncccc2Cl)CC1)n1nc(C(F)(F)F)c2c(=O)[nH]ncc21` (stereo not drawn) [Compound 355], the IC50 was not above 100 nM. The value for `CC1(C)CN(C(=O)CCOCCn2cc(C(F)(F)F)c3c(=O)[nH]ncc32)CCN1c1ncc(C(F)(F)F)cn1` [Compound 358] was not above 100 nM; that for `O=C(CCOCCn1cc(C(F)(F)F)c2c(=O)[nH]ncc21)N1CCN(c2nc3cc(Cl)ccc3o2)CC1` [Compound 359] was not above 100 nM. In the case of `N#Cc1ccc2oc(N3CCN(C(=O)CCOCCn4cc(C(F)(F)F)c5c(=O)[nH]ncc54)CC3)nc2c1` [Compound 361], the IC50 is not above 100 nM. For the molecule `N#Cc1ccc2nc(N3CCN(C(=O)CCOCCn4cc(C(F)(F)F)c5c(=O)[nH]ncc54)CC3)oc2c1` [Compound 362], the concentration for half-maximal inhibition (IC50) is not above 100 nM. Consider `O=C(CCOCCn1cc(C(F)(F)F)c2c(=O)[nH]ncc21)N1CCN(c2nc(C(F)(F)F)co2)CC1` [Compound 363], for which the IC50 was not above 100 nM. On to `O=C(CCOCCn1nc(C(F)(F)F)c2c(=O)[nH]ncc21)N1CCN(c2cc(C(F)(F)F)on2)CC1` [Compound 364], for which the IC50 is not above 100 nM.

With `Cn1c(=O)n(CCOCCC(=O)N2CCN(c3ncc(C(F)(F)F)cn3)CC2)c2cn[nH]c(=O)c21` [Compound 367], the IC50 is not above 100 nM. Consider `CC(COCCC(=O)N1CCN(c2ncccc2F)CC1)n1nc(C(F)(F)F)c2c(=O)[nH]ncc21` (stereo not drawn) [Compound 369], for which the IC50 was not above 100 nM. For the molecule `CC1CN(C(=O)CCOCCn2cc(C(F)(F)F)c3c(=O)[nH]ncc32)CCN1c1ncc(C(F)(F)F)cn1` (stereo not drawn) [Compound 372], the IC50 was not above 100 nM. On to `CC1CN(C(=O)CCOCCn2cc(C(F)(F)F)c3c(=O)[nH]ncc32)CCN1c1ncc(C(F)(F)F)cn1` (stereo not drawn) [Compound 373], for which the IC50 was not above 100 nM. The value for `CC(COCCC(=O)N1CCN(c2ccc(Cl)cn2)CC1)n1cc(C(F)(F)F)c2c(=O)[nH]ncc21` (stereo not drawn) [Compound 374] was not above 100 nM. As for `CC(COCCC(=O)N1CCN(c2ccc(C(F)(F)F)cn2)CC1)n1cc(C(F)(F)F)c2c(=O)[nH]ncc21` (stereo not drawn) [Compound 376], the IC50 is not above 100 nM. As for `CC(COCCC(=O)N1CCN(c2ccc(C(F)(F)F)cn2)CC1)n1cc(C(F)(F)F)c2c(=O)[nH]ncc21` (stereo not drawn) [Compound 377], the IC50 was not above 100 nM.

`CC1(C)CN(c2ncc(C(F)(F)F)cn2)CCN1C(=O)CCOCCn1cc(C(F)(F)F)c2c(=O)[nH]ncc21` [Compound 378]: the IC50 was not above 100 nM. Under `O=C(CCOCCn1cc(C(F)(F)F)c2c(=O)[nH]ncc21)N1CCN(c2nc3ccccc3o2)CC1` [Compound 379] stands not above 100 nM; under `O=C(CCOCCn1cc(C(F)(F)F)c2c(=O)[nH]ncc21)N1CCN(c2nc3ccccc3[nH]2)CC1` [Compound 380], not above 100 nM; under `Cn1c(N2CCN(C(=O)CCOCCn3cc(C(F)(F)F)c4c(=O)[nH]ncc43)CC2)nc2ccccc21` [Compound 381], not above 100 nM. Under `O=C(CCOCCn1cc(C(F)(F)F)c2c(=O)[nH]ncc21)N1CCN(c2nc3ccc(Cl)cc3o2)CC1` [Compound 382] stands not above 100 nM. The value for `O=C(CCOCCn1nc(C(F)(F)F)c2c(=O)[nH]ncc21)N1CCN(c2ncc(C(F)(F)F)o2)CC1` [Compound 383] was not above 100 nM; that for `O=C(CCOCCn1cc(C(F)(F)F)c2c(=O)[nH]ncc21)N1CCN(c2ncc(C(F)(F)F)o2)CC1` [Compound 384] was not above 100 nM.
